Values after ≈ are worked out from the molar mass of the structure shown.
Experiments:
[1] = Water-solubility of allopurinol and prodrugs; settings: water
Experimental: (§1) The water-solubility and lipophilicity of the allopurinol drugs
(§2) The apparent partition coefficients (P) for some allopurinol derivatives and allopurinol were measured using the widely used 1-octanol-water system. Similarly, the solubility of the derivatives in water or aqueous buffer solutions was determined.

rabbits [2] = assay: Intravenous administration to four rabbits, plasma levels; format: in vivo, rabbit; settings: i.v., 25 mg allopurinol equivalents, all blood sampling times
[3] = Between octanol and water
Experimental: as §1, §2

rabbits [4] = assay: Bioavailability following rectal administration to rabbits (suppositories, micro-enemas); settings: rabbits, rectal suppositories, 25 mg allopurinol equivalents, all three blood sampling times
Experimental: (§3) The suppositories or micro-enemas were administered to rabbits. After drug administration, blood samples were taken at various times and the plasma fraction assayed for allopurinol and its major metabolite oxipurinol using the HPLC method described above.

[5] = as above; settings: rabbit, in vivo, 25 mg
Experimental: as §3

[6] = intravenous (Breithaupt & Tittel, 1982); cited from earlier work
man [7] = settings: rectal, various suppository preparations; cited from earlier work
man [8] = settings: cited from earlier work
[9] = Comparative absorption study following peroral administration, urinary excretion; format: in vivo; settings: urine, po, human, dose corresponding to 100 mg allopurinol, read-out: total urinary excretion of allopurinol and oxipurinol
Experimental: A comparative absorption study was also made of allopurinol and the above mentioned prodrug following peroral administration. […] The total urinary excretion of allopurinol and oxipurinol was measured and found to correspond to 67% of the dose given for the allopurinol tablet and 92% for the preparation containing the prodrug derivative.

[10] = 25° C; cited from earlier work

## Oc1ncnc2[nH]ncc12 [Allopurinol, allopurinol]
[1]
  solubility: 0.5 mg/mL (≈ 3.67 mM)
Rabbits [2]
  plasma levels of allopurinol after intravenous administration: below 1 μg/ml
[3]
  log P: -0.55
Rabbits [4]
  plasma levels of allopurinol after rectal administration: below 1 μg/ml
[5]
  Fa: < 2%
[6]
  dose recovered in the urine as intact allopurinol: 12%
  dose recovered in the urine, total: about 88%
Man [7]
  amount absorbed from suppository preparations administered rectally: < 5%
Man [8]; man, oral tablets (Appelbaum et al., 1982)
  absolute systemic bioavailability of oral tablets: about 70%
Man [8]; oral dose (Elion et al., 1966)
  oral dose excreted in the stool unchanged: 20-25%
[9]
  dose excreted: 67%
[10]
  solubility in water: about 0.5 mg/ml
